Measured values from patent publication US20250115628A1, “FLUORINATED FLUOROPHORES” (HOWARD HUGHES MEDICAL INSTITUTE, priority 2023, published 2025).

Tests used:
[1] = tested on: U2OS cells stably expressing HaloTag®-histone H2B fusion protein; test: Loading experiments with NIR-excited HaloTag® ligands (nuclear fluorescence); format: cell-based; conditions: 200 nM; live cells expressing HaloTag®-histone H2B; excited at λabs
Experimental: (§1) U2OS cells (ATCC) and U2OS cells stably expressing an integrated HaloTag®-histone H2B fusion protein (U2OS·H2B·HaloTag®) were cultured in Dulbecco's modified Eagle medium (DMEM, phenol red-free; Life Technologies) supplemented with 10% (v/v) fetal bovine serum (FBS, Life Technologies), 1 mM GlutaMAX (Life Technologies) and maintained at 37° C. in a humidified 5% (v/v) CO2 environment. These cell lines undergo regular mycoplasma testing by the Janelia Cell Culture Facility. For mitochondrial imaging using the HaloTag® system, U2OS cells were transiently transfected using nucleofection (Lonza) with a plasmid constitutively expressing a HaloTag®-TOMM20 fusion protein, which is located on the outer mitochondrial membrane. For 4^−color imaging, U2OS·H2B·HaloTag® stable cells were transiently transfected by nucleofection with plasmids constitutively expressing a SNAP-tag®-TOMM20 fusion protein, and a GFP-SKL (SKL: serine-lysine-leucine) fusion protein, a prototypical peroxisomal matrix targeting signal. All labeled cells were imaged 18-24 h post-transfection or post-plating.
For loading curve experiments (FIG. 15C), U2OS·H2B·HaloTag® stable cells were incubated with 200 nM HaloTag® ligand conjugated dyes (31HTL, 36HTL, 38HTL, 104HTL, 106HTL, 107HTL, and 108HTL) for 0-4 h at 37° C., washed 3× with dye-free media then fixed with 4% paraformaldehyde in 0.1 M phosphate buffer, pH 7.4 for 15 min at 37° C. Confocal imaging was performed on a Leica Stellaris with an HC PL APO 40×/1.25 glycerol objective using the tunable white light laser (WLL) to excite dyes at their λabs in constant power mode. Fluorescence was quantified as the integrated density of nuclear signals in single-plane images analyzed in FIJI;^82 n=100 nuclear signals per compound.

[2] = tested on: U2OS cells stably expressing HaloTag®-histone H2B fusion protein; test: Photostability experiments in fixed cells; format: cell-based; conditions: 200 nM; 30 bleach cycles
Experimental: as §1, with “For 4^−color imaging, U2OS·H2B·HaloTag® stable cells were transiently transfected by nucleofection with plasmids constitutively expressing a SNAP-tag®-TOMM20 fusion protein, and a GFP-SKL (SKL: serine-lysine-leucine) fusion protein, a prototypical peroxisomal matrix targeting signal. All labeled cells were imaged 18-24 h post-transfection or post-plating.” left out
For photostability experiments (FIG. 1611), U2OS·H2B·HaloTag® stable cells were incubated with 200 nM HaloTag® ligands (31HTL, 106HTL, and 107HTL) for 3 h at 37° C., washed 3× with dye-free media then fixed with 4% paraformaldehyde in 0.1 M phosphate buffer, pH 7.4 for 15 min at 37° C. […] To measure photobleaching, the tunable white light laser (WLL) was used to excite dyes at their λabs in constant power mode over 30 cycles; n=3 where n indicates the number of separate cellular experiments where the intensity of the entire field of view was measured at the indicated time points. […]

[3] = target: T1, U2OS cells stably expressing HaloTag®-histone H2B fusion protein (Rhodococcus rhodochrous, UniProt P0A3G2, A155T/A167V/A172T/A224E/C128F/C176G/D78G/E160K/E257K/H272N/K175M/K195N/L47V/L88M/N227D/P291S/S58T/T264A/Y273L/Y87F); test: Labeling and confocal microscopy using ligands 59HTL and 105HTL; format: cell-based; conditions: 200 nM, 1 h, washed
T1 construct: expressed in transfected cells
Experimental: as §1, with “post-plating. […]” for “post-plating.”

[4] = tested on: JM8·N4 mouse embryonic stem cells stably expressing histone H2B-HaloTag® fusion proteins; test: Single-particle tracking (SPT) experiments; format: cell-based; conditions: 100 Hz imaging
Experimental: SPT experiments were carried out as previously described.^84 JM8·N4 mouse embryonic stem cells (ESCs) stably expressing histone H2B-HaloTag® fusion proteins were generated by co-expressing the PiggyBac EF1a-H2B-HaloTag®-IRES-Neo vector with the super piggyBac transposase as described previously,85 followed by G418 selection (500 μg/mL) for 2 weeks and verified by FACS sorting/confocal imaging staining with JF549-HaloTag® ligand (84HTL; 100 nM, 30 min). Cells were seeded on 25 mm #1.5 coverglass pre-cleaned with KOH and ethanol and coated with iMatrix-511 (TaKaRa #T304) or rhLaminin-521 (Gibco™ #A^29248) according to the manufacturers' instruction. All live-cell imaging experiments were conducted using an ESC imaging medium composed of FluoroBrite DMEM (ThermoFisher) plus 15% v/v ESC-qualified FBS, 1× GlutaMax, 1×NEAA, 0.1 mM 2^−mercaptoethanol, and LIF. For comparison of 59HTL and 89HTL (FIG. 13E, 13F) the histone H2B-HaloTag® ESCs were stained with 5 nM 59HTL for 1 h or 0.1 nM 89HTL for 15 min at 37° C. with 5% (v/v) CO2 to achieve sparse labeling with approximately equal localizations per region of interest (ROI), and then washed with dye-free media 3× for 30 min each wash For comparison of 40HTL, 44HTL, 1HTL, or 89HTL (FIG. 12A-12G) the histone H2B-HaloTag® ESCs were stained with 1 nM of HaloTag® ligands for 15 min at 37° C. with 5% (v/v) CO2 to achieve sparse labeling, and then washed with dye-free media 3× for 30 min each wash.
To quantify the brightness and photostability of the HaloTag® ligands, labeled cells were mounted onto a high speed motorized Nikon Eclipse Ti-E inverted microscope equipped with the following: 100× Apo TIRF 1.49 NA objective with a correction collar; four excitation laser lines (405/488/561/642 nm) and matching TIRF quad cube (405/488/561/640 nm reflection bands); automatic TIRF illuminator with motorized X axis and manual Y axis for beam positioning and focus: perfect focus 3 system; Triple DU-897 iXon Ultra EMCCD cameras on a Cairn Tri-cam emission splitter with filters 525/50 (GFP) 600/50 (RFP) and 705/72 (Cy5); humidified incubation chamber maintained at 37° C. with 5% v/v CO2 (Tokai Hit). SPT was performed at 100 Hz for the comparison of 59HTL and 89HTL (FIG. 13E, 13F) and 50 Hz for the comparison of 40HTL, 44HTL, 1HTL, or 89HTL (FIG. 12A-12G); the imaging session was performed for ˜5000 frames using 100% of maximal excitation power (˜120 mW at the fiber end before the TIRF unit). […] For the comparison of HaloTag® ligands 59HTL and 89HTL (FIG. 13E, 13F) and the comparison of compounds 40HTL, 44HTL, 1HTL, and […] (FIG. 12A-12G), the fluorophores were excited with a 647 nm laser. To minimize drift during imaging, the incubation chamber was fully thermally equilibrated, and all imaging was conducted in an isolated ultra-clean room with minimal mechanical vibrations. The microscope, laser lines, and camera integration were controlled using the Nikon NIS-Elements software. Cells with obvious movement during acquisition were removed from further analysis. SMT analysis was based on multiple target tracing 86 (MTT) with tracking parameters similar to previous work.^84 For SPT brightness (photon counts/molecule/s), intensity values from sparsely-labeled molecules were analyzed. For the comparison of HaloTag® ligands 59HTL and 89HTL (FIG. 13E, 13F): n=147,298 single-molecule events using 59HTL; n=100,392 single-molecule events using 89HTL. […]

[5] = fluorescein derivatives; 0.1 N NaOH; data from the inventors' published work; cited from earlier work
[6] = Hill coefficient; data from the inventors' published work; cited from earlier work
[7] = fluorescein derivatives; 0.1 N NaOH; data from the inventors' published work; cited from earlier work; remark: listed apart in the source

T1 sequence (P0A3G2 other isoform, or with tags, fused parts or gaps with the stated changes): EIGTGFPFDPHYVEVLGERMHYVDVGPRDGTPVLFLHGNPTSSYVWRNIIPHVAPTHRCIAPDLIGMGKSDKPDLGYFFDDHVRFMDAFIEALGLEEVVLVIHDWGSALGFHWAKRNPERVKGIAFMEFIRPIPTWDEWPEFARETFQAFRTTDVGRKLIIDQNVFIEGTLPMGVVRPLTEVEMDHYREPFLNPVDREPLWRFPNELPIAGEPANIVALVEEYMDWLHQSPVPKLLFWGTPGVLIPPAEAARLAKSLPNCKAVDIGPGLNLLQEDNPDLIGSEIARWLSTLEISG

CCc1cc2c(c3c1=[N+](C)CCC3)[Si](C)(C)c1c(cc3c4c1CCCN4CCC3)C=2c1c(F)c(C(=O)NCCOCCOCCCCCCCl)c(F)c(F)c1C(=O)[O-] [31HTL, JF698-HaloTag® ligand]
nuclear intensity compared to the other ligands [1]: > 3 fold | brightness and photostability compared with 107HTL and 106HTL [2]: brighter and more photostable

CCc1cc2c(c3c1=[N+](C)CCC3)C(C)(C)c1cc3c(cc1C=2c1c(F)c(C(=O)NCCOCCOCCCCCCCl)c(F)c(F)c1C(=O)[O-])C(C)CC(C)(C)N3CC (centres unmarked) [59HTL, JF657-HaloTag® ligand]
nuclear labeling of histone H2B-HaloTag® in live cells [3]: excellent nuclear staining with little cellular background after washing | SPT brightness (photons/s) compared with 89HTL [4]: significant improvement in brightness | SPT localizations over time [4]: consistent localizations over time

C[Si]1(C)c2cc(O)c(F)cc2C2(OC(=O)c3c(F)c(F)c(F)c(F)c32)c2cc(F)c(O)cc21 [compound 80]
Φf [5]: 0.32 | ηH [6]: 1.50 | ε [7]: 67,900 M^−1cm^−1 | λabs [7]: 617 nm | λem [7]: 635 nm

ATTO 647N-HaloTag® ligand [105HTL, reference compound]
nuclear labeling of histone H2B-HaloTag® in live cells [3]: does not show appreciable labeling in the nucleus
